Experiments:
[1] = Suspension competition experiment between anhydrous crystal form A and anhydrous crystal form C (XRPD); format: physicochemical; conditions: for Relative stability of crystal forms concluded from suspension competition: room temperature to 50 °C
[2] = Hygroscopicity evaluation (DVS test, XRPD after DVS); format: physicochemical; conditions: for Sample weight change at 80% RH (%): DVS, 25 °C; for Whether crystal form changes before and after test: XRPD before and after DVS test; for Hygroscopicity: weight gain when humidity rises to 80% RH at 25 °C, Chinese Pharmacopoeia (2020 Edition)
[3] = High-temperature stability (HPLC purity, XRPD); format: physicochemical; conditions: 60 °C, 10 d; for Purity (Area %): HPLC, initial purity 99.55 (form A), 99.84 (form C)
[4] = Solid-form stability under long-term and accelerated conditions (HPLC purity, XRPD); format: physicochemical; conditions: 10 d; for Physical and chemical stability: 25 °C/60% RH and 40 °C/75% RH; for Purity (Area %): HPLC, initial purity 99.55 (form A), 99.84 (form C)
[5] = Heating experiment and variable temperature XRPD (VT-XRPD); format: physicochemical; conditions: heated to 120 °C
DHX33 = target: T1, DHX33 (Homo sapiens, UniProt Q9H6R0); conditions: background statement, no data; cited from earlier work
T1 sequence (Q9H6R0 1-707): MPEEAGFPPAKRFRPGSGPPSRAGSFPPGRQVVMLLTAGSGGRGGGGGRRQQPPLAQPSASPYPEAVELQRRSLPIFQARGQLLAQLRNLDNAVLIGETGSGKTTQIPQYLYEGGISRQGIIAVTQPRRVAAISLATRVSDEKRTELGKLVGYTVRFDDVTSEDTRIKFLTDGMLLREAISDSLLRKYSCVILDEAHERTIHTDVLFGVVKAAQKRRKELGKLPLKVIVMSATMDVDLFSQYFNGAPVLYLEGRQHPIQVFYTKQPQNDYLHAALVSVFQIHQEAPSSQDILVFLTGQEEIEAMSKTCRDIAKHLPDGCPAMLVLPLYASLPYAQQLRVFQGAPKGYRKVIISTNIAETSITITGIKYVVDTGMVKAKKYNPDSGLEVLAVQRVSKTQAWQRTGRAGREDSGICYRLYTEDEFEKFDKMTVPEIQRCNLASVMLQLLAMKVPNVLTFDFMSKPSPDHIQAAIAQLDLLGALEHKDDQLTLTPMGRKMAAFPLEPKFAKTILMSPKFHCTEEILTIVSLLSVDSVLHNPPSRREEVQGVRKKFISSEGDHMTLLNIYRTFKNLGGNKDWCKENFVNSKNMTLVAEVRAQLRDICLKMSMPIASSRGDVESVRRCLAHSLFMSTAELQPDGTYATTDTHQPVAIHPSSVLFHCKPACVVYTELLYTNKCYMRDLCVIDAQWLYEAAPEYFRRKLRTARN

[6] = Crystal form conversion of wet samples on air-drying at room temperature (XRPD); format: physicochemical; conditions: for Crystal form after air-drying: air-dried at room temperature for 1 d; for Stability of the crystal form: crystalline wet solid
[7] = listed as anhydrous crystal form A
[8] = listed as anhydrous crystal form C

Row | Sample weight change at 80% RH (%) [2] | Whether crystal form changes before and after test [2] | Hygroscopicity [2] | Crystal form Change [3] | Physical and chemical stability [3] | Purity (Area %) [3] | Physical and chemical stability [4] | Crystal form Change ([4]; 25 °C/60% RH) | Purity (Area %) ([4]; 25 °C/60% RH) | Crystal form Change ([4]; 40 °C/75% RH) | Purity (Area %) ([4]; 40 °C/75% RH) | Stability of the crystal form [6] | SMILES | Relative stability of crystal forms concluded from suspension competition [1] | Crystal form after air-drying [6] | other results
1 | 3.24% | No | slight hygroscopicity | No | good physical and chemical stability | 99.63 Area % | good physical and chemical stability | No | 99.67 Area % | No | 99.60 Area % |  | COc1ccc2nc(NC(=O)c3cc(C)n(-c4sc(C)cc4C#N)c3C)[nH]c2c1 (single isomer, unassigned) [Anhydrous crystal form A, 1-(3-cyano-5-methylthiophen-2-yl)-N-(6-methoxy-1H-benzo[d]imidazol-2-yl)-2,5-dimethyl-1H-pyrrole-3-carboxamide] | more thermodynamically stable anhydrous form |  | Sample weight change at 80% RH (%) [2, 7]: 3.24%; Whether crystal form changes before and after test [2, 7]: no changes in crystal form; Crystal form in VT-XRPD analysis ([5]; XRPD in situ, then cooled to room temperature): crystal form remained unchanged; Crystal form in heating experiment ([5]; maintained for 5 min, cooled to room temperature): crystal form remained unchanged
2 |  |  |  |  |  |  |  |  |  |  |  | metastable form | COc1ccc2nc(NC(=O)c3cc(C)n(-c4sc(C)cc4C#N)c3C)[nH]c2c1 [crystal form B, 1-(3-cyano-5-methylthiophen-2-yl)-N-(6-methoxy-1H-benzo[d]imidazol-2-yl)-2,5-dimethyl-1H-pyrrole-3-carboxamide] | relatively more stable in the case of the wet sample | converted into the anhydrous crystal form A | 
3 |  |  |  |  |  |  |  |  |  |  |  | metastable form | COc1ccc2nc(NC(=O)c3cc(C)n(-c4sc(C)cc4C#N)c3C)[nH]c2c1 [crystal form D, 1-(3-cyano-5-methylthiophen-2-yl)-N-(6-methoxy-1H-benzo[d]imidazol-2-yl)-2,5-dimethyl-1H-pyrrole-3-carboxamide] |  | converted into the anhydrous crystal form C | 
4 | 3.71% | No | slight hygroscopicity | No | good physical and chemical stability | 99.86 Area % | good physical and chemical stability | No | 99.87 Area % | No | 99.90 Area % |  | COc1ccc2nc(NC(=O)c3cc(C)n(-c4sc(C)cc4C#N)c3C)[nH]c2c1 (single isomer, unassigned) [Anhydrous crystal form C, 1-(3-cyano-5-methylthiophen-2-yl)-N-(6-methoxy-1H-benzo[d]imidazol-2-yl)-2,5-dimethyl-1H-pyrrole-3-carboxamide] |  | converted into the anhydrous crystal form A | Sample weight change at 80% RH (%) [2, 8]: 3.71%; Whether crystal form changes before and after test [2, 8]: no changes in crystal form

Further lines, the compound ahead of its results:

Row | SMILES | Sample weight change at 80% RH (%) [2] | Whether crystal form changes before and after test [2] | Hygroscopicity [2] | Crystal form Change [3] | Physical and chemical stability [3] | Purity (Area %) [3] | Physical and chemical stability [4] | Crystal form Change ([4]; 25 °C/60% RH) | Purity (Area %) ([4]; 25 °C/60% RH) | Crystal form Change ([4]; 40 °C/75% RH) | Purity (Area %) ([4]; 40 °C/75% RH) | Stability of the crystal form [6] | Relative stability of crystal forms concluded from suspension competition [1] | Crystal form after air-drying [6] | other results
5 | COc1ccc2nc(NC(=O)c3cc(C)n(-c4sc(C)cc4C#N)c3C)[nH]c2c1 [compound of Formula (1), 1-(3-cyano-5-methylthiophen-2-yl)-N-(6-methoxy-1H-benzo[d]imidazol-2-yl)-2,5-dimethyl-1H-pyrrole-3-carboxamide] |  |  |  |  |  |  |  |  |  |  |  |  |  |  | Inhibiting the RNA helicase activity of DHX33 (DHX33): capable of inhibiting the RNA helicase activity of DHX33
6 | COc1ccc2nc(NC(=O)c3cc(C)n(-c4sc(C)cc4C#N)c3C)[nH]c2c1 |  |  |  |  |  |  |  |  |  |  |  |  |  |  | Competition for 1 d (XPRD) ([1]; EtOH, 50 °C, saturated solution of Compound (1), resulting crystal form): crystal form B; Competition for 2 d (XPRD) ([1]; IPAc, RT, saturated solution of Compound (1), resulting crystal form): crystal form B

From US20260250273A1, “CRYSTAL FORM OF COMPOUND, AND PHARMACEUTICAL COMPOSITION AND USE THEREOF” (SHENZHEN KEYE LIFE TECHNOLOGIES CO., LTD, priority 2023, published 2026)
